7 compounds from PubChem BioAssay (NCI) can be followed below.

SMILES strings stand for the structures.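 Test compounds were applied to cells in 96-well plates for 48 hours at 5 doses. The concentration for 50% growth inhibition is given as GI50. The concentration for full growth arrest is given as TGI.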

Test systems include HL-60(TB) leukemia; MDA-MB-231 breast; HS 578T breast; PC-3 prostate; NCI-H226 lung; NCI-H460 lung; OVCAR-5 ovarian; UACC-62 melanoma; HT29 colon; M14 melanoma.
What all share (assay): NCI tumour cell line growth inhibition, 48 h

Consider `CC(C)N1CCN(Cc2ccc3c(NNC(=O)c4ccccc4)nc4cc(F)ccc4n23)CC1`, for which the GI50 is 0.322 µM with HL-60(TB) leukemia; 0.497 µM in the assay with MDA-MB-231 breast; 4.23 µM in the assay with HS 578T breast; 0.402 µM with PC-3 prostate; 0.534 µM with NCI-H226 lung; 0.128 µM in the assay on NCI-H460 lung. Also, the GI50 is 0.674 µM in the assay with OVCAR-5 ovarian, 0.388 µM in the assay with UACC-62 melanoma, 0.673 µM with HT29 colon and 0.23 µM in the assay with M14 melanoma. In addition, the TGI is 1.43 µM with HL-60(TB) leukemia; 2.48 µM in the assay on MDA-MB-231 breast; 26.9 µM in the assay on HS 578T breast; 12.7 µM in the assay on PC-3 prostate; 8.18 µM in the assay on NCI-H226 lung; 1.4 µM with NCI-H460 lung. For the same compound, the TGI in the assay on OVCAR-5 ovarian stood at 6.83 µM; in the assay on UACC-62 melanoma it was 2.67 µM; in the assay on HT29 colon, 7.46 µM; in the assay on M14 melanoma, 3.28 µM.

Regarding `COc1cccc2c1-c1c(c3ccc([N+](=O)[O-])cc3c(=O)n1CCCN)C2=O`, the GI50 is 1.62 µM in the assay on HL-60(TB) leukemia; 1.68 µM in the assay on MDA-MB-231 breast; 7.62 µM in the assay with HS 578T breast; 1.43 µM in the assay on PC-3 prostate; 7.67 µM with NCI-H226 lung; 0.239 µM in the assay with NCI-H460 lung. Also, the GI50 with OVCAR-5 ovarian was 1.88 µM; with UACC-62 melanoma, 1.89 µM; in the assay with HT29 colon, 1.24 µM; in the assay with M14 melanoma it was 1.54 µM. Further, the TGI came to 3.93 µM in the assay on HL-60(TB) leukemia; 3.41 µM in the assay on MDA-MB-231 breast; 18.7 µM in the assay on HS 578T breast; 4.03 µM in the assay on PC-3 prostate; 34.3 µM with NCI-H226 lung; 1.94 µM with NCI-H460 lung. For the same compound, the TGI in the assay on OVCAR-5 ovarian was 3.4 µM; in the assay on UACC-62 melanoma, 7.95 µM; with HT29 colon, 3.08 µM; in the assay on M14 melanoma, 3 µM.

As for `Cc1cc(Nc2nc(-c3cccnc3)nc3ccccc23)n[nH]1`, the GI50 in the assay on HL-60(TB) leukemia was 3.27 µM; in the assay with MDA-MB-231 breast, 17.3 µM; in the assay on HS 578T breast it was 0.364 µM; in the assay with PC-3 prostate it was 1.85 µM; in the assay on NCI-H226 lung, 1.39 µM; in the assay with NCI-H460 lung, 1.84 µM. In addition, the GI50 with OVCAR-5 ovarian was 7.77 µM; in the assay with UACC-62 melanoma it was 0.943 µM; in the assay with HT29 colon, 1.57 µM; with M14 melanoma, 2.33 µM. Further, the TGI with HL-60(TB) leukemia is 49 µM; with MDA-MB-231 breast it was over 100 µM; with HS 578T breast, 3.74 µM; with PC-3 prostate, over 100 µM; in the assay with NCI-H226 lung, over 24.2 µM; with NCI-H460 lung, over 100 µM. In addition, the TGI in the assay on OVCAR-5 ovarian was over 100 µM; in the assay on UACC-62 melanoma, 35.6 µM; with HT29 colon it was 11.8 µM; with M14 melanoma it was over 100 µM.

Regarding `CCC(c1ccc(OC)cc1)C(CC)c1ccc(O)c(CN2CCN(C)CC2)c1` (stereo not given), the GI50 with HL-60(TB) leukemia was 2.62 µM; with MDA-MB-231 breast it was 3.7 µM; in the assay with HS 578T breast, 3.08 µM; in the assay with PC-3 prostate, 6.73 µM; in the assay on NCI-H226 lung, 12.4 µM; with NCI-H460 lung, 3.04 µM. In addition, the GI50 in the assay on OVCAR-5 ovarian was 14.7 µM; in the assay on UACC-62 melanoma, 1.99 µM; in the assay with HT29 colon it was 2.01 µM; in the assay on M14 melanoma, 1.99 µM. In addition, the TGI with HL-60(TB) leukemia is 5.9 µM; in the assay on MDA-MB-231 breast it was 15.1 µM; in the assay on HS 578T breast, 9.56 µM; in the assay with PC-3 prostate, 21.2 µM; in the assay with NCI-H226 lung it was 30.8 µM; with NCI-H460 lung, 8.2 µM. In addition, the TGI is 29.3 µM in the assay on OVCAR-5 ovarian, 4.16 µM in the assay on UACC-62 melanoma, 9.06 µM in the assay with HT29 colon and 3.8 µM with M14 melanoma.

As to `CCOc1cc(Br)c(C(C)NC(=O)c2cccc(OC)c2)cc1OCC` (stereo not given), the GI50 in the assay on HL-60(TB) leukemia was 3.8 µM; with MDA-MB-231 breast, 8.59 µM; in the assay with HS 578T breast, 15.5 µM; with PC-3 prostate, 12.6 µM; with NCI-H226 lung, 21.4 µM; in the assay with NCI-H460 lung it was 6.02 µM. For the same compound, the GI50 is 25.4 µM in the assay with OVCAR-5 ovarian, 6.61 µM in the assay with UACC-62 melanoma, 5.01 µM with HT29 colon and 4.38 µM in the assay on M14 melanoma. Also, the TGI was over 61.3 µM in the assay on HL-60(TB) leukemia; over 100 µM in the assay on MDA-MB-231 breast; over 96.6 µM in the assay with HS 578T breast; over 100 µM with PC-3 prostate; over 100 µM in the assay with NCI-H226 lung; over 81.5 µM in the assay on NCI-H460 lung. Besides, the TGI in the assay on OVCAR-5 ovarian, in the assay on UACC-62 melanoma, with HT29 colon and in the assay with M14 melanoma was over 100 µM each time.

With `O=C(O)c1cn(C2CC2)c2cc(N3CCN(C(=O)Nc4nc(-c5ccccc5)cs4)CC3)c(F)cc2c1=O`, the GI50 in the assay on HL-60(TB) leukemia was 1.62 µM; in the assay with MDA-MB-231 breast, 2.3 µM; in the assay with HS 578T breast, 0.861 µM; in the assay on PC-3 prostate, 1.88 µM; in the assay on NCI-H226 lung it was 2.96 µM; in the assay with NCI-H460 lung it was 0.445 µM. For the same compound, the GI50 is 2.36 µM with OVCAR-5 ovarian, 0.67 µM in the assay with UACC-62 melanoma, 0.636 µM in the assay on HT29 colon and 2.06 µM with M14 melanoma. Also, the TGI with HL-60(TB) leukemia is 4.41 µM; in the assay on MDA-MB-231 breast it was 9.94 µM; in the assay on HS 578T breast it was 72.1 µM; with PC-3 prostate it was over 100 µM; with NCI-H226 lung, 57.5 µM; with NCI-H460 lung, over 100 µM. Besides, the TGI was over 100 µM with OVCAR-5 ovarian, 8.52 µM in the assay with UACC-62 melanoma, 4.67 µM in the assay with HT29 colon and over 100 µM in the assay with M14 melanoma.

Turning to `COc1ccc(/C=c2\sc3n(c2=O)C2C(NN=3)N(C)C(=O)N2C)cc1` (stereo not given), the GI50 is 0.501 µM in the assay on HL-60(TB) leukemia; 2.77 µM in the assay on MDA-MB-231 breast; 0.659 µM in the assay on HS 578T breast; 0.444 µM in the assay on PC-3 prostate; 1.18 µM in the assay with NCI-H226 lung; 0.933 µM in the assay on NCI-H460 lung. The GI50 in the assay with OVCAR-5 ovarian is 2.25 µM; with UACC-62 melanoma, 0.578 µM; in the assay on HT29 colon, 0.56 µM; in the assay on M14 melanoma, 0.344 µM. The TGI was 1.96 µM with HL-60(TB) leukemia; over 100 µM in the assay with MDA-MB-231 breast; 8.96 µM with HS 578T breast; over 100 µM with PC-3 prostate; over 100 µM in the assay with NCI-H226 lung; over 100 µM in the assay on NCI-H460 lung. Moreover, the TGI is over 100 µM in the assay with OVCAR-5 ovarian, over 100 µM in the assay with UACC-62 melanoma, over 100 µM in the assay with HT29 colon and 5.17 µM in the assay with M14 melanoma.
